Assay results: ChEMBL document CHEMBL3046595, “Novel furoxan NO-donor pemetrexed derivatives: design, synthesis, and preliminary biological evaluation” (2009)

Legend:
Format in all cases: functional
BGC-823 [1] = experiment: Cytotoxicity against Homo sapiens (human) BGC823 cells at 0.1 x 10^-6 mol/L after 48 hr by MTT assay; settings: BGC-823, 48 h
BGC-823 [2] = experiment: Cytotoxicity against Homo sapiens (human) BGC823 cells at 10 x 10^-6 mol/L after 48 hr by MTT assay; settings: BGC-823, 48 h
BGC-823 [3] = experiment: Cytotoxicity against Homo sapiens (human) BGC823 cells at 1 x 10^-6 mol/L after 48 hr by MTT assay; settings: BGC-823, 48 h
SMMC-7721 [4] = experiment: Cytotoxicity against Homo sapiens (human) SMMC7721 cells at 10 x 10^-6 mol/L after 48 hr by MTT assay; settings: SMMC-7721, 48 h
HL-60 [5] = experiment: Cytotoxicity against Homo sapiens (human) HL60 cells at 0.1 x 10^-6 mol/L after 48 hr by MTT assay; settings: HL-60, 48 h
SMMC-7721 [6] = experiment: Cytotoxicity against Homo sapiens (human) SMMC7721 cells at 0.1 x 10^-6 mol/L after 48 hr by MTT assay; settings: SMMC-7721, 48 h
HL-60 [7] = experiment: Cytotoxicity against Homo sapiens (human) HL60 cells at 1 x 10^-6 mol/L after 48 hr by MTT assay; settings: HL-60, 48 h
A549 [8] = experiment: Cytotoxicity against Homo sapiens (human) A549 cells at 1 x 10^-6 mol/L after 48 hr by MTT assay; settings: A549, 48 h
A549 [9] = experiment: Cytotoxicity against Homo sapiens (human) A549 cells at 0.1 x 10^-6 mol/L after 48 hr by MTT assay; settings: A549, 48 h
HL-60 [10] = experiment: Cytotoxicity against Homo sapiens (human) HL60 cells at 10 x 10^-6 mol/L after 48 hr by MTT assay; settings: HL-60, 48 h
SMMC-7721 [11] = experiment: Cytotoxicity against Homo sapiens (human) SMMC7721 cells at 1 x 10^-6 mol/L after 48 hr by MTT assay; settings: SMMC-7721, 48 h
A549 [12] = experiment: Cytotoxicity against Homo sapiens (human) A549 cells at 10 x 10^-6 mol/L after 48 hr by MTT assay; settings: A549, 48 h

CCOC(=O)[C@H](CCC(=O)OCCCCCOc1no[n+]([O-])c1S(=O)(=O)c1ccccc1)NC(=O)c1ccc(CCc2c[nH]c3[nH]c(N)nc(=O)c23)cc1
inhibition at 0.1 µM (BGC-823 [1]): 50% | inhibition at 10 µM (BGC-823 [2]): < 50% | inhibition at 1 µM (BGC-823 [3]): 50% | inhibition at 10 µM (SMMC-7721 [4]): < 50% | inhibition at 0.1 µM (HL-60 [5]): > 80% | inhibition at 0.1 µM (SMMC-7721 [6]): < 50% | inhibition at 1 µM (HL-60 [7]): > 80% | inhibition at 1 µM (A549 [8]): 50% | inhibition at 0.1 µM (A549 [9]): < 50% | inhibition at 10 µM (HL-60 [10]): < 50% | inhibition at 1 µM (SMMC-7721 [11]): < 50% | inhibition at 10 µM (A549 [12]): < 50%

CCOC(=O)[C@H](CCC(=O)OCCCCOc1no[n+]([O-])c1S(=O)(=O)c1ccccc1)NC(=O)c1ccc(CCc2c[nH]c3[nH]c(N)nc(=O)c23)cc1
inhibition at 0.1 µM (BGC-823 [1]): < 50% | inhibition at 10 µM (BGC-823 [2]): < 50% | inhibition at 1 µM (BGC-823 [3]): > 80% | inhibition at 10 µM (SMMC-7721 [4]): < 50% | inhibition at 0.1 µM (HL-60 [5]): 50% | inhibition at 0.1 µM (SMMC-7721 [6]): < 50% | inhibition at 1 µM (HL-60 [7]): 50% | inhibition at 1 µM (A549 [8]): < 50% | inhibition at 0.1 µM (A549 [9]): < 50% | inhibition at 10 µM (HL-60 [10]): < 50% | inhibition at 1 µM (SMMC-7721 [11]): > 80% | inhibition at 10 µM (A549 [12]): < 50%

CCOC(=O)[C@H](CCC(=O)OCCCCCCOc1no[n+]([O-])c1S(=O)(=O)c1ccccc1)NC(=O)c1ccc(CCc2c[nH]c3[nH]c(N)nc(=O)c23)cc1
inhibition at 0.1 µM (BGC-823 [1]): < 50% | inhibition at 10 µM (BGC-823 [2]): < 50% | inhibition at 1 µM (BGC-823 [3]): 50% | inhibition at 10 µM (SMMC-7721 [4]): < 50% | inhibition at 0.1 µM (HL-60 [5]): < 50% | inhibition at 0.1 µM (SMMC-7721 [6]): < 50% | inhibition at 1 µM (HL-60 [7]): > 80% | inhibition at 1 µM (A549 [8]): < 50% | inhibition at 0.1 µM (A549 [9]): < 50% | inhibition at 10 µM (HL-60 [10]): < 50% | inhibition at 1 µM (SMMC-7721 [11]): > 80% | inhibition at 10 µM (A549 [12]): < 50%

CCOC(=O)[C@H](CCC(=O)OCCCOc1no[n+]([O-])c1S(=O)(=O)c1ccccc1)NC(=O)c1ccc(CCc2c[nH]c3[nH]c(N)nc(=O)c23)cc1
inhibition at 0.1 µM (BGC-823 [1]): < 50% | inhibition at 10 µM (BGC-823 [2]): < 50% | inhibition at 1 µM (BGC-823 [3]): < 50% | inhibition at 10 µM (SMMC-7721 [4]): < 50% | inhibition at 0.1 µM (HL-60 [5]): < 50% | inhibition at 0.1 µM (SMMC-7721 [6]): < 50% | inhibition at 1 µM (HL-60 [7]): 50% | inhibition at 1 µM (A549 [8]): < 50% | inhibition at 0.1 µM (A549 [9]): < 50% | inhibition at 10 µM (HL-60 [10]): < 50% | inhibition at 1 µM (SMMC-7721 [11]): < 50% | inhibition at 10 µM (A549 [12]): < 50%

CCOC(=O)[C@H](CCC(=O)OC(C)COc1no[n+]([O-])c1S(=O)(=O)c1ccccc1)NC(=O)c1ccc(CCc2c[nH]c3[nH]c(N)nc(=O)c23)cc1 (stereo partly drawn)
inhibition at 0.1 µM (BGC-823 [1]): < 50% | inhibition at 10 µM (BGC-823 [2]): < 50% | inhibition at 1 µM (BGC-823 [3]): > 80% | inhibition at 10 µM (SMMC-7721 [4]): < 50% | inhibition at 0.1 µM (HL-60 [5]): > 80% | inhibition at 0.1 µM (SMMC-7721 [6]): < 50% | inhibition at 1 µM (HL-60 [7]): > 80% | inhibition at 1 µM (A549 [8]): < 50% | inhibition at 0.1 µM (A549 [9]): < 50% | inhibition at 10 µM (HL-60 [10]): < 50% | inhibition at 1 µM (SMMC-7721 [11]): < 50% | inhibition at 10 µM (A549 [12]): < 50%

CCOC(=O)[C@H](CCC(=O)OCC#CCOc1no[n+]([O-])c1S(=O)(=O)c1ccccc1)NC(=O)c1ccc(CCc2c[nH]c3[nH]c(N)nc(=O)c23)cc1
inhibition at 0.1 µM (BGC-823 [1]): < 50% | inhibition at 1 µM (BGC-823 [3]): 50% | inhibition at 10 µM (SMMC-7721 [4]): < 50% | inhibition at 0.1 µM (HL-60 [5]): < 50% | inhibition at 0.1 µM (SMMC-7721 [6]): < 50% | inhibition at 1 µM (HL-60 [7]): > 80% | inhibition at 1 µM (A549 [8]): < 50% | inhibition at 0.1 µM (A549 [9]): < 50% | inhibition at 10 µM (HL-60 [10]): 50% | inhibition at 1 µM (SMMC-7721 [11]): 50% | inhibition at 10 µM (A549 [12]): < 50%

Nc1nc2[nH]cc(CCc3ccc(C(=O)N[C@@H](CCC(=O)O)C(=O)O)cc3)c2c(=O)[nH]1 [PEMETREXED DISODIUM]
inhibition at 0.1 µM (BGC-823 [1]): < 50% | inhibition at 10 µM (BGC-823 [2]): 50% | inhibition at 1 µM (BGC-823 [3]): < 50% | inhibition at 10 µM (SMMC-7721 [4]): < 50% | inhibition at 0.1 µM (HL-60 [5]): 50% | inhibition at 0.1 µM (SMMC-7721 [6]): < 50% | inhibition at 1 µM (HL-60 [7]): > 80% | inhibition at 1 µM (A549 [8]): < 50% | inhibition at 0.1 µM (A549 [9]): < 50% | inhibition at 10 µM (HL-60 [10]): > 80% | inhibition at 1 µM (SMMC-7721 [11]): < 50% | inhibition at 10 µM (A549 [12]): < 50%

CCOC(=O)[C@H](CCC(=O)OCCOc1no[n+]([O-])c1S(=O)(=O)c1ccccc1)NC(=O)c1ccc(CCc2c[nH]c3[nH]c(N)nc(=O)c23)cc1
inhibition at 0.1 µM (BGC-823 [1]): < 50% | inhibition at 10 µM (BGC-823 [2]): < 50% | inhibition at 1 µM (BGC-823 [3]): < 50% | inhibition at 10 µM (SMMC-7721 [4]): < 50% | inhibition at 0.1 µM (HL-60 [5]): < 50% | inhibition at 0.1 µM (SMMC-7721 [6]): < 50% | inhibition at 1 µM (HL-60 [7]): 50% | inhibition at 1 µM (A549 [8]): < 50% | inhibition at 0.1 µM (A549 [9]): < 50% | inhibition at 10 µM (HL-60 [10]): < 50% | inhibition at 1 µM (SMMC-7721 [11]): < 50% | inhibition at 10 µM (A549 [12]): < 50%

CCOC(=O)[C@H](CCC(=O)OCCOCCOc1no[n+]([O-])c1S(=O)(=O)c1ccccc1)NC(=O)c1ccc(CCc2c[nH]c3[nH]c(N)nc(=O)c23)cc1
inhibition at 0.1 µM (BGC-823 [1]): < 50% | inhibition at 1 µM (BGC-823 [3]): < 50% | inhibition at 0.1 µM (HL-60 [5]): < 50% | inhibition at 0.1 µM (SMMC-7721 [6]): < 50% | inhibition at 1 µM (HL-60 [7]): > 80% | inhibition at 1 µM (A549 [8]): < 50% | inhibition at 0.1 µM (A549 [9]): < 50% | inhibition at 1 µM (SMMC-7721 [11]): < 50%
